Results reported in patent US8030354B2, “Substituted biphenyl GPR40 modulators” (Amgen Inc., priority 2007, dated 2011).

What was measured:
[1] = target: T1, GPR40 (Homo sapiens, UniProt O14842); assay: Cell-based aequorin assay (CHO cells stably expressing GPR40 and aequorin); set-up: expressed in transfected cells; host or cells: CHO cells stably transfected with GPR40 and aequorin; details: activation of human GPR40, CHO cells, 0.01% HSA
Procedure, shortened: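 CHO cells stably co-expressing GPR40 and aequorin, loaded with coelenterazine (1 ug/mL, 2 h, room temperature) in H/HBSS with 20 mM Hepes and 0.01% fatty acid-free HSA. Serially diluted compounds added; luminescence recorded over 20 s. EC50 from dose-response of maximum relative light units.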

[2] = target: T1, GPR40; assay: Inositol phosphate accumulation assay (A9_GPR40 cells); type: cell-based; set-up: expressed in transfected cells; host or cells: CHO cells stably transfected with GPR40 and aequorin; details: inositol phosphate assay, A9_GPR40 cells, 1 hour; read-out: IP3 EC50
Procedure, shortened: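 [^3H] inositol phosphate accumulation was measured by SPA after 1 h compound exposure at 37° C in HBSS/10 mM LiCl containing HSA, ending with a 20 mM formic acid quench. The GPR40-transfected A9 cells had first been labelled overnight (16 h) with 1 μCi/mL ^3H-inositol.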

T1 sequence (O14842 whole entry): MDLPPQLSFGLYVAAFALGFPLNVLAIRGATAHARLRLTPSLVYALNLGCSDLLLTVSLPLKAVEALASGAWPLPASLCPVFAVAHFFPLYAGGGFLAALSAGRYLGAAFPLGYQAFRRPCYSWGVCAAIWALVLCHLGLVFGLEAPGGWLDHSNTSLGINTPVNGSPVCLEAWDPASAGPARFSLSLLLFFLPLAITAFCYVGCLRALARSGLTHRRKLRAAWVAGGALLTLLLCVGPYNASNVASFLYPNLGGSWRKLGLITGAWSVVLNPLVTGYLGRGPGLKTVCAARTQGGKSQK

EC50 [1] | EC50 [2] | Compound
0.1 to 1 µM | 0.01 to 0.1 µM | CCC(CC(=O)O)c1cc(F)cc(OCc2ccc(-c3cc(OC)ccc3F)c(C3=CCCC3(C)C)c2)c1 (single isomer, unassigned) [Example 88.2, (3R)-3-(3-(((2-(5,5-Dimethyl-1-cyclopenten-1-yl)-2′-fluoro-5′-(methyloxy)-1,1′-biphenyl-4-yl)methyl)oxy)-5-fluorophenyl)pentanoic acid or (3S)-3-(3-(((2-(5,5-dimethyl-1-cyclopenten-1-yl)-2′-fluoro-5′-(methyloxy)-1,1′-biphenyl-4-yl)methyl)oxy)-5-fluorophenyl)pentanoic acid]
0.1 to 1 µM | < 0.01 µM | CCC(CC(=O)O)c1cc(F)cc(OCc2cc(C3CCCC3(C)C)c(-c3cc(OC)ccc3F)cc2F)c1 (single isomer, unassigned) [Example 88.3]
0.1 to 1 µM | < 0.01 µM | CCC(CC(=O)O)c1cc(F)cc(OCc2ccc(-c3cc(OC)ncc3F)c(C3CCCC3(C)C)c2)c1 (single isomer, unassigned) [Example 88.4]
0.01 to 0.1 µM | < 0.01 µM | COc1ccc(F)c(-c2ccc(COc3cc(F)cc(C(CC(=O)O)CC4CC4)c3)cc2C2CCCC2(C)C)c1 (single isomer, unassigned) [Example 89.1]
0.1 to 1 µM | 0.01 to 0.1 µM | COc1ccc(F)c(-c2ccc(COc3cc(F)cc(C(CC(=O)O)CC4CC4)c3)cc2C2=CCCC2(C)C)c1 (single isomer, unassigned) [Example 89.2, (3R)-4-Cyclopropyl-3-(3-(((2-(5,5-dimethyl-1-cyclopenten-1-yl)-2′-fluoro-5′-(methyloxy)-1,1′-biphenyl-4-yl)methyl)oxy)-5-fluorophenyl)butanoic acid or (3S)-4-cyclopropyl-3-(3-(((2-(5,5-dimethyl-1-cyclopenten-1-yl)-2′-fluoro-5′-(methyloxy)-1,1′-biphenyl-4-yl)methyl)oxy)-5-fluorophenyl)butanoic acid]
0.1 to 1 µM | < 0.01 µM | COc1ccc(F)c(-c2cc(F)c(COc3cc(F)cc(C(CC(=O)O)CC4CC4)c3)cc2C2CCCC2(C)C)c1 (single isomer, unassigned) [Example 89.3]
0.1 to 1 µM | < 0.01 µM | COc1cc(-c2ccc(COc3cc(F)cc(C(CC(=O)O)CC4CC4)c3)cc2C2CCCC2(C)C)c(F)cn1 (single isomer, unassigned) [Example 89.4]
0.1 to 1 µM | 0.01 to 0.1 µM | CCC(CC(=O)O)c1cc(F)cc(OCc2ccc(-c3cc(OC)ccc3F)c(C3=CCCC3(C)C)c2)c1F (single isomer, unassigned) [Example 90.1, (3R)-3-(3-(((2-(5,5-Dimethyl-1-cyclopenten-1-yl)-2′-fluoro-5′-(methyloxy)-1,1′-biphenyl-4-yl)methyl)oxy)-2,5-difluorophenyl)pentanoic acid or (3S)-3-(3-(((2-(5,5-dimethyl-1-cyclopenten-1-yl)-2′-fluoro-5′-(methyloxy)-1,1′-biphenyl-4-yl)methyl)oxy)-2,5-difluorophenyl)pentanoic acid]
0.1 to 1 µM | < 0.01 µM | CCC(CC(=O)O)c1cc(F)cc(OCc2ccc(-c3cc(OC)ccc3F)c(C3CCCC3(C)C)c2)c1F (single isomer, unassigned) [Example 90.2]
0.1 to 1 µM | < 0.01 µM | CCC(CC(=O)O)c1cc(F)cc(OCc2ccc(-c3cc(OC)ncc3F)c(C3CCCC3(C)C)c2)c1F (single isomer, unassigned) [Example 90.3]
0.1 to 1 µM | 0.01 to 0.1 µM | CCC(CC(=O)O)c1cc(OCc2ccc(-c3cc(OC)ccc3F)c(C3=CCCC3(C)C)c2)cc(C(F)(F)F)c1 (single isomer, unassigned) [Example 91, (3R)-3-(3-(((2-(5,5-Dimethyl-1-cyclopenten-1-yl)-2′-fluoro-5′-(methyloxy)-1,1′-biphenyl-4-yl)methyl)oxy)-5-(trifluoromethyl)phenyl)pentanoic acid or (3S)-3-(3-(((2-(5,5-dimethyl-1-cyclopenten-1-yl)-2′-fluoro-5′-(methyloxy)-1,1′-biphenyl-4-yl)methyl)oxy)-5-(trifluoromethyl)phenyl)pentanoic acid]
